# Test results reported in patent US20260258425A1, “MALT1 TUMOR INHIBITOR, PHARMACEUTICAL COMPOSITION CONTAINING THE SAME, AND APPLICATIONS THEREOF” (XZYP (BEIJING) BIOTECH CO., LTD, priority 2023, published 2026).
# Entries after “also recorded” stand apart in the source; their conditions may differ.
# Tests used:
# MALT1 = experiment: Western blot of MALT1 expression in E0771 cells after ASO transfection with Lipofectamine 3000; assay type: cell-based, mouse; settings: ASO final concentration 50 nM, 5 μL Lipofectamine 3000, 48 hours after transfection
# Description: S1. Considering the specificity between the antisense nucleic acid and the target nucleic acid and the hairpin-like structure that may be formed by the base complementarity within the nucleotide sequence of the antisense nucleic acid, the nucleotide sequence of the antisense nucleic acid needs to target the amino acid residues at positions 81 and/or 82 of the death domain (DD) of MALT1; S2. Considering the stability of hybridization and the membrane permeability of the antisense oligonucleotide, select the length of the antisense oligonucleotide, which ranges from 15 to 40 bases; S3. Considering the affinity of the antisense oligonucleotide for the target sequence, since the affinity of GC base pairs is greater than that between AU, increasing the ratio of GC base pairs to AU base pairs in the antisense oligonucleotide can appropriately reduce the length of the antisense oligonucleotide; S4. Set a control, which can be missense or reverse; S5. Use the designed antisense oligonucleotides to inhibit the expression of the same target sequence MALT-1 mRNA, and screen the antisense oligonucleotide with the best inhibitory effect. The specific steps for screening the antisense oligonucleotide with the best inhibitory effect are as follows: • a. […] 2×10^5 E0771 cells into each well of a 12-well plate and incubate overnight; • b. On the day after operation a, transfect the corresponding ASO drug with 5 μL of Lipofectamine™ 3000 until its final concentration is 50 nM; • c. 6 hours after operation b, replace the serum-free medium with medium containing 10% serum; • d. 24 hours after operation c, replace the serum-free medium again; • e. 48 hours after operation d, harvest the obtained protein and perform Western blot experiment. The Western blot results of antisense oligonucleotides targeting E0771 cells after transfection with Lipofectamine™ 3000 are shown in FIG. 5: in this figure, 48 hours after transfection with Lipofectamine™ 3000, 5 μL of Lipofectamine™ 3000 was added to each well of the 12-well plate.
# ABC DLBCL cells = settings: background statement; cited from earlier work
# [1] = system: germinal center B-cell (GCB) type DLBCL cells; settings: background statement; cells independent of BCR signaling; cited from earlier work
# 4T1 cells [2] = experiment: 4T1 breast cancer model, systemic ASO24 (tail vein LNP-ASO), tumor volume; assay type: in vivo, mouse
# Experimental: (§1) Study on the Effect Comparison between ASO Prodrug and PD-1/PD-L1 and Their Combined Use Based on Systemic Administration Experimental Data of Various Mouse Breast Cancer Models and Melanoma Models (Administration Started 7 Days Later, Once Every 3 Days).
# (§2) The experimental process is similar to the intratumoral administration of ASO24 in E0771 cells, with the difference that ASO24 is administered via systemic delivery by tail vein injection of LNP-ASO in mice.
# E0771 cells [3] = experiment: E0771 breast cancer model, systemic ASO24 (tail vein LNP-ASO), tumor volume; assay type: in vivo, mouse
# Experimental: (§3) 1×10^5 E0771 cells were orthotopically injected into the fat pad of wild-type mice. Starting from day 7, PD-1 antibody (BioXCell #BE0033, clone J43, the same below) monotherapy, ASO monotherapy, or combined PD-1 antibody and ASO therapy was initiated. For anti-PD-1 antibody monotherapy, intraperitoneal injection was performed once a week at a dose of 3 mg/kg starting 7 days after tumor transplantation, and the control group was injected with DPBS. For MALT1 ASO monotherapy, in vivo-jetPEI®, in vivo DNA transfection kit was used according to the instructions. Intratumoral injection was performed twice a week at a dose of 5 nmol starting 7 days after tumor transplantation, and the control group was injected with solvent or nontarget ASO. Combined therapy will receive the two specified monotherapies. Tumor measurement was started after administration, once every three days. n=12. Data are expressed as mean. Statistical analysis was performed using Two way ANOVA. ** represents p <0.01.
# as §1, §2
# B16F10 cells = experiment: B16F10 subcutaneous melanoma model, intratumoral ASO, tumor volume; assay type: in vivo, mouse; settings: mean, n=10
# Description: (§4) Based on the intratumoral experimental data of various mouse breast cancer models and melanoma models (administration started 7 days later, once every 3 days), this example studies the effect comparison between the ASO prodrug (ASO24, whose sequence is shown in SEQ ID No. 2) and PD-1/PD-L1, as well as the effect of their combination.
# as §3
# 1×10^5 B16F10 cells were subcutaneously injected near the subcutaneous tissue of the groin of wild-type mice. Starting from day 7, PD-1 antibody monotherapy, ASO monotherapy, or combined PD-1 antibody and ASO therapy was initiated. n=10. Data are expressed as mean. Statistical analysis was performed using Two way ANOVA. ** represents p<0.01.
# PyMT-A cells = experiment: PyMT-A orthotopic breast cancer model, intratumoral ASO, tumor volume; assay type: in vivo, mouse; settings: mean, n=10
# Description: as §4, §3
# (§5) 1×10^5 PyMT-A cells were orthotopically injected into the fat pad of wild-type mice. Starting from day 7, PD-1 antibody monotherapy, ASO monotherapy, or combined PD-1 antibody and ASO therapy was initiated. n=10. Data are expressed as mean. Statistical analysis was performed using Two way ANOVA. n.s. represents no significant difference. ** represents p <0.01.
# 4T1 cells [4] = experiment: 4T1 orthotopic breast cancer model, intratumoral ASO, tumor volume; assay type: in vivo, mouse; settings: mean, n=10
# Description: as §4, §3
# as §5, with “2×10^5 4T1” for “1×10^5 PyMT-A”
# [5] = system: breast cancer cells (E0771); experiment: Verification of ASO prodrug in breast cancer cells E0771 (FIG. 18); assay type: cell-based, mouse
# E0771 cells [6] = experiment: E0771 orthotopic breast cancer model, intratumoral ASO, tumor volume; assay type: in vivo, mouse; settings: ASO 5 nmol intratumoral twice a week, mean, n=12
# Description: as §4, §3
# [7] = Day 7 (start of administration), ASO24 systemic by tail vein LNP-ASO
# [8] = Day 9, ASO24 systemic by tail vein LNP-ASO, administration from day 7
# [9] = Day 11, ASO24 systemic by tail vein LNP-ASO, administration from day 7
# [10] = Day 13, ASO24 systemic by tail vein LNP-ASO, administration from day 7
# [11] = Day 15, ASO24 systemic by tail vein LNP-ASO, administration from day 7
# [12] = Day 17, ASO24 systemic by tail vein LNP-ASO, administration from day 7
# [13] = Day 19, ASO24 systemic by tail vein LNP-ASO, administration from day 7
substance,measurement,setting,value
"GTCCAGCCAACACTGCCTTG (antisense GUCCAGCCAACACUGCCUUG; listed as RNA, chemistry not given here) [ASO J]",inhibition of MALT1 expression (Western blot band),MALT1,good inhibitory results; also recorded: good inhibitory effects
"TAGAGGCAGTGCTTGGGAAG (antisense UAGAGGCAGUGCUUGGGAAG; listed as RNA, chemistry not given here) [ASO H]",inhibition of MALT1 expression (Western blot band),MALT1,good inhibitory results; also recorded: good inhibitory effects
"CAAGAGCAGATTTATTTTGT (antisense CAAGAGCAGAUUUAUUUUGU; listed as RNA, chemistry not given here) [ASO K]",inhibition of MALT1 expression (Western blot band),MALT1,good inhibitory results; also recorded: good inhibitory effects
"GGTTTGTGGACTATACTTGT (antisense GGUUUGUGGACUAUACUUGU; listed as RNA, chemistry not given here) [ASO25]",inhibition of MALT1 expression (Western blot band),MALT1,obvious inhibitory results; also recorded: obvious inhibitory effects
zVRPR-FMK,toxicity in ABC DLBCL cells,ABC DLBCL cells,induces toxicity
same,sensitivity of GCB type DLBCL cells to the inhibitor,[1],insensitive
"GAGGCAGTGCTTGGGAAGGTC (antisense GAGGCAGUGCUUGGGAAGGUC; listed as RNA, chemistry not given here) [ASO I]",inhibition of MALT1 expression (Western blot band),MALT1,good inhibitory results; also recorded: good inhibitory effects
"GAAGTTCATGAGCCTTGGCCC (antisense GAAGUUCAUGAGCCUUGGCCC; called an ASO prodrug, chemistry not given here) [ASO24]",Tumor volume,"4T1 cells [2]; Day 0, ASO24 systemic by tail vein LNP-ASO, administration from day 7",0 mm^3
same,Tumor volume,4T1 cells [2]; [7],44 mm^3
same,Tumor volume,4T1 cells [2]; [8],94 mm^3
same,Tumor volume,4T1 cells [2]; [9],103 mm^3
same,Tumor volume,4T1 cells [2]; [10],136 mm^3
same,Tumor volume,4T1 cells [2]; [11],244 mm^3
same,Tumor volume,4T1 cells [2]; [12],333 mm^3
same,Tumor volume,4T1 cells [2]; [13],510 mm^3
same,Tumor volume,"E0771 cells [3]; Day 0, ASO24 systemic by tail vein injection of LNP-ASO, administration from day 7",0 mm^3
same,Tumor volume,E0771 cells [3]; [7],29 mm^3
same,Tumor volume,E0771 cells [3]; [8],51 mm^3
same,Tumor volume,E0771 cells [3]; [9],57 mm^3
same,Tumor volume,E0771 cells [3]; [10],86 mm^3
same,Tumor volume,E0771 cells [3]; [11],195 mm^3
same,Tumor volume,E0771 cells [3]; [12],225 mm^3
same,Tumor volume,E0771 cells [3]; [13],313 mm^3
same,Tumor volume,"B16F10 cells; Day 0, B16F10 subcutaneous near groin, wild-type mice, treatment from day 7, ASO intratumoral",0 mm^3
same,Tumor volume,"B16F10 cells; Day 7 (start of treatment), B16F10 subcutaneous, ASO intratumoral",49 mm^3
same,Tumor volume,"B16F10 cells; Day 10, B16F10 subcutaneous, treatment from day 7, ASO intratumoral",26 mm^3
same,Tumor volume,"B16F10 cells; Day 13, B16F10 subcutaneous, treatment from day 7, ASO intratumoral",129 mm^3
same,Tumor volume,"B16F10 cells; Day 16, B16F10 subcutaneous, treatment from day 7, ASO intratumoral",311 mm^3
same,Tumor volume,"PyMT-A cells; Day 0, PyMT-A orthotopic fat pad, wild-type mice, treatment from day 7, ASO intratumoral",0 mm^3
same,Tumor volume,"PyMT-A cells; Day 7 (start of treatment), PyMT-A orthotopic, ASO intratumoral",13 mm^3
same,Tumor volume,"PyMT-A cells; Day 10, PyMT-A orthotopic, treatment from day 7, ASO intratumoral",41 mm^3
same,Tumor volume,"PyMT-A cells; Day 13, PyMT-A orthotopic, treatment from day 7, ASO intratumoral",142 mm^3
same,Tumor volume,"PyMT-A cells; Day 16, PyMT-A orthotopic, treatment from day 7, ASO intratumoral",245 mm^3
same,Tumor volume,"PyMT-A cells; Day 19, PyMT-A orthotopic, treatment from day 7, ASO intratumoral",578 mm^3
same,inhibition of MALT1 expression (Western blot band),MALT1; listed as D,obvious inhibitory results; also recorded: obvious inhibitory effects
same,Tumor volume,"4T1 cells [4]; Day 0, 4T1 orthotopic fat pad, wild-type mice, treatment from day 7, ASO intratumoral",0 mm^3
same,Tumor volume,"4T1 cells [4]; Day 7 (start of treatment), 4T1 orthotopic, ASO intratumoral",66 mm^3
same,Tumor volume,"4T1 cells [4]; Day 10, 4T1 orthotopic, treatment from day 7, ASO intratumoral",71 mm^3
same,Tumor volume,"4T1 cells [4]; Day 13, 4T1 orthotopic, treatment from day 7, ASO intratumoral",205 mm^3
same,Tumor volume,"4T1 cells [4]; Day 16, 4T1 orthotopic, treatment from day 7, ASO intratumoral",377 mm^3
same,Tumor volume,"4T1 cells [4]; Day 19, 4T1 orthotopic, treatment from day 7, ASO intratumoral",876 mm^3
same,inhibition of further development of cancer cells,[5],significantly inhibit the further development of cancer cells
same,Tumor volume,"E0771 cells [6]; Day 0, E0771 orthotopic fat pad, wild-type mice, from day 7 anti-PD-1 3 mg/kg i.p. once a week",0 mm^3
same,Tumor volume,"E0771 cells [6]; Day 7 (start of treatment), E0771 orthotopic, anti-PD-1 3 mg/kg i.p. once a week",49 mm^3
same,Tumor volume,"E0771 cells [6]; Day 10, E0771 orthotopic, from day 7 anti-PD-1 3 mg/kg i.p. once a week",36 mm^3
same,Tumor volume,"E0771 cells [6]; Day 13, E0771 orthotopic, from day 7 anti-PD-1 3 mg/kg i.p. once a week",92 mm^3
same,Tumor volume,"E0771 cells [6]; Day 16, E0771 orthotopic, from day 7 anti-PD-1 3 mg/kg i.p. once a week",140 mm^3
same,Tumor volume,"E0771 cells [6]; Day 19, E0771 orthotopic, from day 7 anti-PD-1 3 mg/kg i.p. once a week",306 mm^3
"AGCCTTGGCCCACTGTAGATT (antisense AGCCUUGGCCCACUGUAGAUU; listed as RNA, chemistry not given here) [ASO A]",inhibition of MALT1 expression (Western blot band),MALT1,good inhibitory results; also recorded: good inhibitory effects
"AAGTTCATGAGCCTTGGCCC (antisense AAGUUCAUGAGCCUUGGCCC; listed as RNA, chemistry not given here) [ASO C]",inhibition of MALT1 expression (Western blot band),MALT1,good inhibitory results; also recorded: good inhibitory effects
"TCATGAGCCTTGGCCCACTG (antisense UCAUGAGCCUUGGCCCACUG; listed as RNA, chemistry not given here) [ASO B]",inhibition of MALT1 expression (Western blot band),MALT1,obvious inhibitory results; also recorded: obvious inhibitory effects
"TTGTGGACTATACTTGTGTA (antisense UUGUGGACUAUACUUGUGUA; listed as RNA, chemistry not given here) [ASO G]",inhibition of MALT1 expression (Western blot band),MALT1,good inhibitory results; also recorded: good inhibitory effects
